Measured values published in US12496350B2 (Ohio State Innovation Foundation, priority 2018, dated 2025).
Read-outs that look alike come from different tables or passages of the source. Values belong to the molecule of their own block, whether it stands above or below them. Where a SMILES comes first, the peptide text is derived from it. [ ]: non-standard residue; d: D form. The star is where a group is joined. X1 = O=C(O)c1cc(NC(=S)*)ccc1C1c2ccc(O)cc2Oc2cc(O)ccc21; 2Nal = N[C@@H](Cc1ccc2ccccc2c1)C(=O)O; Bta = N[C@@H](Cc1csc2ccccc12)C(=O)O; Pen = CC(C)(S)[C@H](N)C(=O)O; Tle = CC(C)(C)[C@H](N)C(=O)O; Pip = O=C(O)[C@@H]1CCCCN1; AEEA = NCCOCCOCC(=O)O

Columns and labels:
[1] = target: T1, CAL PDZ domain (CALP5-His) (Homo sapiens, UniProt Q9HD26); test: Direct fluorescence polarization binding of labeled peptide, Condition C
T1 construct: His
Protocol: Condition C (denoted with superscript ^C): 50 nM labeled peptide was incubated with 2 mM TCEP in PBS at pH 7.4 containing 0.01% Triton-X100. CALP5-His was serially diluted in PBS containing 0.01% Triton-X100 to which was then added the peptide and TCEP solution. This solution was mixed for 1 h at RT then 20 uL was pipetted into 384-well microplates and fluorescence polarization was measured using a TECAN Infinite M1000 plate reader. KD values were calculated using KaleidaGraph v. 3.6 using the equation: […]
(§1) Binding Affinity and Selectivity. The potency and selectivity of inhibitor 29 was first assessed by comparing its binding affinity to the four PDZ domains of CAL, NHERF1, and NHERF2, which are involved in the trafficking of CFTR to and from the plasma membrane. Peptides were labeled with FITC at the N-terminus through a miniPEG linker and tested for binding to various PDZ domains by fluorescence polarization (FP). FITC-labeled peptide (50 nM) was incubated with varying concentrations of PDZ domain in PBS (pH 7.4) containing 0.01% Triton X-100 and 2 mM TCEP for 1 h at room temperature. After 1 h, 20 μL of each sample was pipetted into 384-well black-on-black microplates and fluorescence polarization was measured by using a TECAN Infinite M1000 plate reader. Data was processed using GraphPad PRISM ver. 8.0.

HeLa cells [2] = test: Cellular uptake efficiency by flow cytometry; type: cell-based; details: for Uptake (% rel.): HeLa cells, 5 μM, 2 h, relative to CPP9 (100%)
Protocol: (§2) Cellular Uptake Efficiency: HeLa cells were seeded into 12-well cell-culture treated plates at a final density of 15×10^4 cells/well in DMEM supplemented with 10% FBS and 1% penicillin/streptomycin and incubated overnight at 37° ° C. and 5% CO2. After 24 h, the media was aspirated followed by washing the cells three times with warm DPBS. Peptides were diluted to a final concentration of 5 μM in DMEM containing 10% FBS with 1% penicillin/streptomycin, added to each well and then incubated for 2 h at 37° C. and 5% CO2. After 2 h, treatment media was aspirated and the cells were washed three times with ice-cold DPBS. Cells were removed from the plate via treatment with trypsin/EDTA and then harvested in ice-cold DPBS followed by centrifugation at ×300 RCF, 4° C. for 5 min. Cells were resuspended in DPBS and quantified using a BD Biosciences LSR II flow cytometer and gated using FlowJo. Values for uptake are provided as a percentage relative to positive control, CPP9 ([cyclo-fΦRrRrQ]-miniPEG-K[NF]).
as §2, with “Cellular Uptake. HeLa cells” for “Cellular Uptake Efficiency: HeLa cells”, “at 37° C. and” for “at 37° ° C. and”, “37° C. with 5% CO2.” for “37° C. and 5% CO2.”, “centrifugation at 300 g, 4° C.” for “centrifugation at ×300 RCF, 4° C.”, “control, CPP9 ([cyclo-fΦRrRrQ]-miniPEG-K[NF]), which has a 62% cytosolic entry efficiency. PGD97 entered HeLa cells at 60% efficiency relative to CPP9, corresponding to an absolute cytosolic entry efficiency of ˜36% (FIG. 9).” for “control, CPP9 ([cyclo-fΦRrRrQ]-miniPEG-K[NF]).”

NHERF2-PDZ2 (N2P2) = target: T2, NHERF2-PDZ2 (N2P2) (Homo sapiens, UniProt Q15599); test: Direct fluorescence polarization binding of FITC-labeled peptide; details: 50 nM FITC-labeled peptide, FP
T2 construct: PDZ1 (N2P1), and NHERF2-PDZ2 domains (N2P2)
Protocol: as §1

NHERF1-PDZ1 (N1P1) = target: T3, NHERF1-PDZ1 (N1P1) (Homo sapiens, UniProt O14745); test: as above
T3 sequence (O14745 14-94 limits assumed): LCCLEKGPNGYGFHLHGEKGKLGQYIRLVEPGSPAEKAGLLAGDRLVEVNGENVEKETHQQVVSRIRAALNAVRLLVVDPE
Protocol: as §1

NHERF2-PDZ1 (N2P1) = target: T4, NHERF2-PDZ1 (N2P1) (Homo sapiens, UniProt Q15599); test: as above; details: 50 nM FITC-labeled peptide, FP
T4 construct: PDZ1 (N2P1), and NHERF2-PDZ2 domains (N2P2)
Protocol: as §1

[3] = target: T1, CAL PDZ domain (CALP5-His); test: FP-based competition assay, Condition B (probe FAM-[…]-OH); type: binding; details: for IC50: 500 nM CALP5-His, 5 mM DTT
Protocol: Serial dilutions of each competitor peptide were prepared in PBS and the incubation solution was added to each. The combined solutions were gently mixed for 1 h at RT after which 20 uL sample was pipetted into 384-well black-on-black microplates and fluorescence polarization was measured using a TECAN Infinite M1000 plate reader. Data was processed to determine IC50 using GraphPad PRISM ver. 6.0.

[4] = Preliminary tests of cellular activity; type: cell-based; details: 50 nM concentration
HCT116 cell spheroids = test: Intracellular stability by MALDI imaging; type: in vitro ADME; details: after 4 or 24 h incubation with PGD97
Protocol: Intracellular Stability. PGD97 ([…]) was added to HCT116 cell spheroids in RPMI-1640 medium supplemented with 10% FBS and 1% penicillin/streptomycin and incubated for 4 or 24 h. After incubation, spheroids were washed 3× with DPBS, quickly frozen, embedded in a solid support, and cryo-sectioned. Prior to analysis, sinapinic acid was sublimed onto individual slides. The sample was imaged using a Bruker ultrafleXtreme MALDI-TOF-TOF and analyzed for the presence of proteolytic degradation fragments. Heatmaps, scaled relative to the most intense signal, were generated for the intact peptide (both 29 and 32) as well as ˜20 potential proteolytic fragments at each time point. […] A degradation fragment (#1) corresponding to proteolytic cleavage between Thr and Arg (FIG. 8B) was observed, but none of the other potential degradation products were observed. […] Most importantly, significant concentrations of intact peptide 29 was still present inside the cells after 24 h.

LC3-II = test: Autophagy in macrophages, western blotting for LC3-II; type: cell-based, human; details: 10 μM, ΔF508 CFTR macrophages
Protocol: Effect on Autophagy in Macrophage. Human primary ΔF508 CFTR macrophages were incubated with 10 μM VX809 (n=1) or 100 nM PGD97 (n=2) for 48 h in complete growth medium supplemented with 10% FBS and 1% penicillin/streptomycin at 37° C. Induction of autophagy was determined via western blotting for autophagy-associated protein LC3-II.

[5] = HCT116 cell spheroids in RPMI-1640 medium supplemented with 10% FBS and 1% penicillin/streptomycin; details: up to 24 h
HeLa cells [6] = details: positive control value; cited from earlier work
[7] = 50 nM FITC-labeled peptide, FP, read-out: KD (nM) CALP
[8] = 50 nM FITC-labeled peptide, FP, read-out: KD (nM) N1P1
[9] = Condition B (superscript b): 100 nM probe FAM-[…]-OH
[10] = Condition B (superscript b): 100 nM probe FAM-ANSRWPTSII-OH
[11] = FITC-labeled peptide, FP, read-out: Affinity (KD)

T4 sequence (Q15599 11-90 limits assumed): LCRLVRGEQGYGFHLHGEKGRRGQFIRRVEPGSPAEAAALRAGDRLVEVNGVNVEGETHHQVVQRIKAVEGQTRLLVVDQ
T2 sequence (Q15599 150-230 limits assumed): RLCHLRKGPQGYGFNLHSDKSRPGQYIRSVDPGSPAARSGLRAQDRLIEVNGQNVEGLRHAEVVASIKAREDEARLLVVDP

Molecule: CC(=O)N[C@@H](CS)C(=O)N[C@H](CCCNC(=N)N)C(=O)N[C@@H](CCCNC(=N)N)C(=O)N[C@@H](CCCNC(=N)N)C(=O)N[C@@H](Cc1ccc2ccccc2c1)C(=O)N[C@@H](Cc1c[nH]c2ccccc12)C(=O)N[C@@H](CCC(N)=O)C(=O)N[C@H](C(=O)N[C@H](C(=O)N[C@@H](CCCNC(=N)N)C(=O)N[C@H](C(=O)O)C(C)(C)C)[C@@H](C)O)C(C)(C)S [Compound 20, Ac-Cys-(D-Arg)-Arg-Arg-(2-Nal)-Trp-Gln-Pen-Thr-Arg-Tle-OH] (Ac-C[dR]RR[2Nal]WQ[Pen]TR[Tle]-OH)
Kd [1, 7]: 110 nM | Kd ([1]; FITC-labeled peptide 20, FP, read-out: KD for CAL PDZ domain (FIG. 3A)): ~50 nM | Uptake (% rel.) (HeLa cells [2]): 28 ± 1% | Kd (NHERF2-PDZ2 (N2P2)): 4970 ± 890 nM | Kd (NHERF1-PDZ1 (N1P1); [8]): 1640 ± 150 nM | Kd (NHERF2-PDZ1 (N2P1)): 2980 ± 150 nM | IC50 [3, 9]: 165 nM

Molecule: CC(C)(CO)c1cc2cc(NC(=O)C3(c4ccc5c(c4)OC(F)(F)O5)CC3)c(F)cc2n1C[C@@H](O)CO [VX661, Tezacaftor, reference compound]
LC3-II protein levels (LC3-II): also effective

Molecule: Ac-Cys-(D-Arg)-Arg-Arg-Nal-Bta-Pip-Pen-Thr-Arg-Tle-OH
cleaved bond [5]: Thr-Arg

Molecule: [cyclo-fΦRrRrQ]-miniPEG-K[NF] [CPP9]
cytosolic entry efficiency (HeLa cells [6]): 62%

More lines, main results first:

Uptake (% rel.) (HeLa cells [2]): 23 ± 4% | IC50 [3, 10]: 270 nM
Molecule: CC(=O)N[C@@H](CS)C(=O)N[C@H](CCCNC(=N)N)C(=O)N[C@H](CCCNC(=N)N)C(=O)N[C@@H](CCCNC(=N)N)C(=O)N[C@@H](Cc1ccc2ccccc2c1)C(=O)N[C@@H](Cc1c[nH]c2ccccc12)C(=O)N[C@@H](CCC(N)=O)C(=O)N[C@H](C(=O)N[C@H](C(=O)N[C@@H](CCCNC(=N)N)C(=O)N[C@H](C(=O)O)C(C)(C)C)[C@@H](C)O)C(C)(C)S [Compound 21, Ac-Cys-(D-Arg)-(D-Arg)-Arg-(2-Nal)-Trp-Gln-Pen-Thr-Arg-Tle-OH] (Ac-C[dR][dR]R[2Nal]WQ[Pen]TR[Tle]-OH)

Uptake (% rel.) (HeLa cells [2]): 92% | cell-permeability, fold higher (HeLa cells [2]; relative to peptide 22): 4 fold | IC50 [3, 10]: 380 nM | decrease of CAL binding ([3]; relative to peptide 22): ~2 fold
Molecule: CC(=O)N[C@@H](CS)C(=O)N[C@H](CCCNC(=N)N)C(=O)N[C@@H](CCCNC(=N)N)C(=O)N[C@@H](CCCNC(=N)N)C(=O)N[C@@H](Cc1ccc2ccccc2c1)C(=O)N[C@@H](Cc1c[nH]c2ccccc12)C(=O)N[C@H](C(=O)N[C@H](C(=O)N[C@H](C(=O)N[C@@H](CCCNC(=N)N)C(=O)N[C@H](C(=O)O)C(C)(C)C)[C@@H](C)O)C(C)(C)C)C(C)(C)S [Compound 24, Ac-Cys-(D-Arg)-Arg-Arg-(2-Nal)-Trp-Pen-Tle-Thr-Arg-Tle-OH] (Ac-C[dR]RR[2Nal]W[Pen][Tle]TR[Tle]-OH)

improvement in cell-permeability (HeLa cells [2]; Bta for Trp at P-5, relative to peptide 24): > 5 fold | Uptake (% rel.) (HeLa cells [2]): 518 ± 74% | cell-permeability, fold better (HeLa cells [2]; relative to CPP9): 5 fold | cell-permeability, fold better (HeLa cells [2]; relative to peptide 20): ~20 fold | IC50 [3, 9]: 235 nM | potency in CAL binding, fold more potent ([3]; relative to peptide 24): 1.5 fold
Molecule: CC(=O)N[C@@H](CS)C(=O)N[C@H](CCCNC(=N)N)C(=O)N[C@@H](CCCNC(=N)N)C(=O)N[C@@H](CCCNC(=N)N)C(=O)N[C@@H](Cc1ccc2ccccc2c1)C(=O)N[C@@H](Cc1csc2ccccc12)C(=O)N[C@H](C(=O)N[C@H](C(=O)N[C@H](C(=O)N[C@@H](CCCNC(=N)N)C(=O)N[C@H](C(=O)O)C(C)(C)C)[C@@H](C)O)C(C)(C)C)C(C)(C)S [Compound 25, Ac-Cys-(D-Arg)-Arg-Arg-(2-Nal)-(Bta)-Pen-Tle-Thr-Arg-Tle-OH] (Ac-C[dR]RR[2Nal][Bta][Pen][Tle]TR[Tle]-OH)
cellular activity [4]: robust cellular activity

presence of intact peptide in spheroids (HCT116 cell spheroids): High concentrations | Kd [1, 7]: 6 ± 3 nM | Kd [1, 11]: 6 nM | improvement of CAL PDZ-binding affinity ([1]; Pip for Pro): ~15 fold | selectivity for CAL vs NHERF PDZ domains ([1]; ratio of KD values, NHERF1/2 PDZ domains vs CAL PDZ): ≥ 130 fold | Kd (NHERF1-PDZ1 (N1P1); range over N1P1, N2P1 and N2P2, read-out: KD values for NHERF1/2 PDZ domains): 780 to 7480 nM
Molecule: CC(=O)N[C@@H](CS)C(=O)N[C@H](CCCNC(=N)N)C(=O)N[C@@H](CCCNC(=N)N)C(=O)N[C@@H](CCCNC(=N)N)C(=O)N[C@@H](Cc1ccc2ccccc2c1)C(=O)N[C@@H](Cc1csc2ccccc12)C(=O)N1CCCC[C@H]1C(=O)N[C@H](C(=O)N[C@H](C(=O)N[C@@H](CCCNC(=N)N)C(=O)N[C@H](C(=O)O)C(C)(C)C)[C@@H](C)O)C(C)(C)S [Compound 29, Ac-Cys-(D-Arg)-Arg-Arg-Nal-Bta-Pip-Pen-Thr-Arg-Tle-OH] (Ac-C[dR]RR[2Nal][Bta][Pip][Pen]TR[Tle]-OH)

Kd [1, 7]: 6 ± 3 nM | Kd [1, 11]: 6 ± 3 nM | Kd (NHERF2-PDZ2 (N2P2)): 7480 ± 580 nM | Kd (NHERF1-PDZ1 (N1P1); [8]): 780 ± 10 nM | Kd (NHERF2-PDZ1 (N2P1)): 1370 ± 380 nM
Molecule: C[C@@H](O)[C@H](NC(=O)[C@@H](NC(=O)[C@@H]1CCCCN1C(=O)[C@H](Cc1csc2ccccc12)NC(=O)[C@H](Cc1ccc2ccccc2c1)NC(=O)[C@H](CCCNC(=N)N)NC(=O)[C@H](CCCNC(=N)N)NC(=O)[C@@H](CCCNC(=N)N)NC(=O)[C@H](CS)NC(=O)COCCOCCNC(=S)Nc1ccc(C2c3ccc(O)cc3Oc3cc(O)ccc32)c(C(=O)O)c1)C(C)(C)S)C(=O)N[C@@H](CCCNC(=N)N)C(=O)N[C@H](C(=O)O)C(C)(C)C [Compound 29-FITC, FITC-miniPEG-Cys-(D-Arg)-Arg-Arg-Nal-Bta-Pip-Pen-Thr-Arg-Tle-OH] ({X1-AEEA}-C[dR]RR[2Nal][Bta][Pip][Pen]TR[Tle]-OH)
